{"source": "ChEMBL document CHEMBL1201862", "about": "“PubChem BioAssay data set” (2004)", "key": {"[1]": {"target": "Melanocortin receptor 4 (Homo sapiens, UniProt P32245)", "sequence (P32245 whole entry)": "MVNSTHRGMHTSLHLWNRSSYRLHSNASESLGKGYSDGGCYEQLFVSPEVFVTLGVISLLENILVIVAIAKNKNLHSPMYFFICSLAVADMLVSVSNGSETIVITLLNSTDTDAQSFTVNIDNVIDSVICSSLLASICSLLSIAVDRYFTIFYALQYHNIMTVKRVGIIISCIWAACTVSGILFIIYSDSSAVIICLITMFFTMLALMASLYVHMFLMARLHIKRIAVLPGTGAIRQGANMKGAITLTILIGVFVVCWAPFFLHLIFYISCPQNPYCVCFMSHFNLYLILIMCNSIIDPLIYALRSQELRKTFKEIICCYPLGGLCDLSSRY", "format": "functional, cell-based"}, "[2]": {"target": "T1, Calpain-2 catalytic subunit (Sus scrofa, UniProt P43367)", "T1 sequence (P43367 whole entry)": "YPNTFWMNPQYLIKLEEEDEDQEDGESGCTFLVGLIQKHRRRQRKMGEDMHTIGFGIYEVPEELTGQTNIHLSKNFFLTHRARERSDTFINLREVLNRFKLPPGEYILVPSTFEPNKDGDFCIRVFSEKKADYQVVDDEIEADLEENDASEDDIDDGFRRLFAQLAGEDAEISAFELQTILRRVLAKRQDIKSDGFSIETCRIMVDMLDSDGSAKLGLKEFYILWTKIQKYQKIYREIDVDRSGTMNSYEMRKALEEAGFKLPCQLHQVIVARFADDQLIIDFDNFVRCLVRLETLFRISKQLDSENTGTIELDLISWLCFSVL", "test": "m-calpain protease blockers, concentration series – biochemical, fluorogenic peptide substrate, dose response (AID 1420)", "format": "functional"}, "[3]": {"target": "T2, Sentrin-specific protease 8 (Homo sapiens, UniProt Q96LD8)", "T2 sequence (Q96LD8 whole entry)": "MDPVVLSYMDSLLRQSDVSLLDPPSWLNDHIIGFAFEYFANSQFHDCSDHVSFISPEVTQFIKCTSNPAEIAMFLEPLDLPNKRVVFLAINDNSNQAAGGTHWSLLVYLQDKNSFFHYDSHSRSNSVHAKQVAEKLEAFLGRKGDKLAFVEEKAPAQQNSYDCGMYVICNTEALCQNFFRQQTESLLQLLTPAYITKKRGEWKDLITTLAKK", "format": "functional"}, "[4]": {"target": "T2, Sentrin-specific protease 8", "format": "functional", "remark": "listed apart in the source"}, "[5]": {"target": "T3, Caspase-3 (Homo sapiens, UniProt P42574)", "T3 sequence (P42574 whole entry)": "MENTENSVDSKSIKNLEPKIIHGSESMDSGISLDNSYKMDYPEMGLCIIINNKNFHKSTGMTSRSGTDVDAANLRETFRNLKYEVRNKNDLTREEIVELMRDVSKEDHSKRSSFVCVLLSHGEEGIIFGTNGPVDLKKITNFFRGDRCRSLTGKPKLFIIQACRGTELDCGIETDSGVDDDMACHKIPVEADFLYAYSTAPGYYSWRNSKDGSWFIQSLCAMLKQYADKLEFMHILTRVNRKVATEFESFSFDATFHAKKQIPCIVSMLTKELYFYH", "test": "Dose-response confirmation of uHTS inhibitor hits of Sentrin-Specific Protease 8 in a Caspase-3 Fluorescence assay.", "format": "functional"}, "[6]": {"system": "CHO-K1", "test": "(§1) Counterscreen for antagonists of the orexin 1 receptor (OX1R; HCRTR1): Homogeneous time resolved fluorescence (HTRF)-based cell-based dose response assay to identify antagonists of the parental CHO-K1 cell line. [Related pubchem assays (depositor defined):AID434989, AID435008, AID463079, AID485270, AID492963, AID492964, AID492965, AID493232, AID504699, AID504701]", "format": "functional", "settings": "Cricetulus griseus"}, "[7]": {"target": "T4, Orexin/Hypocretin receptor type 1 (Homo sapiens, UniProt O43613)", "T4 sequence (O43613 whole entry)": "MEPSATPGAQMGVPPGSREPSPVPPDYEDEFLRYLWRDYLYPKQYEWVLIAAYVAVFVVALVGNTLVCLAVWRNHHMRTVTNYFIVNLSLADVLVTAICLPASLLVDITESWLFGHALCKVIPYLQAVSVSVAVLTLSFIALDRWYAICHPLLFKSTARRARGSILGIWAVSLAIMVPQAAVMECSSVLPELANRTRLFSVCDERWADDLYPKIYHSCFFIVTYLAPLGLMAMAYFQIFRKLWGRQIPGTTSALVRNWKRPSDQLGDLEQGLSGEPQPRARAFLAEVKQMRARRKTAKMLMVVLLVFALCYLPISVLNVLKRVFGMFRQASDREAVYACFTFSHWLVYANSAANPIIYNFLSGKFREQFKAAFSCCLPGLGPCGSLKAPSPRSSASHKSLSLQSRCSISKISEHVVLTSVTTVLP", "test": "Homogeneous Time Resolved Fluorescence (HTRF)-based cell-based high throughput dose response assay for antagonists of the orexin 1 receptor (OX1R; HCRTR1). [Related pubchem assays (depositor defined):AID434989, AID435008, AID463079, AID485270, AID492963, AID492964, AID492965, AID493232, AID504717, AID504718]", "format": "functional"}, "[8]": {"test": "as §1, with “Fluorescence-based” for “Homogeneous time resolved fluorescence (HTRF)-based”, “cell-based high throughput” for “cell-based”, “CHO” for “CHO-K1”", "format": "functional"}, "[9]": {"target": "T5, Orexin receptor type 2 (Homo sapiens, UniProt O43614)", "T5 sequence (O43614 whole entry)": "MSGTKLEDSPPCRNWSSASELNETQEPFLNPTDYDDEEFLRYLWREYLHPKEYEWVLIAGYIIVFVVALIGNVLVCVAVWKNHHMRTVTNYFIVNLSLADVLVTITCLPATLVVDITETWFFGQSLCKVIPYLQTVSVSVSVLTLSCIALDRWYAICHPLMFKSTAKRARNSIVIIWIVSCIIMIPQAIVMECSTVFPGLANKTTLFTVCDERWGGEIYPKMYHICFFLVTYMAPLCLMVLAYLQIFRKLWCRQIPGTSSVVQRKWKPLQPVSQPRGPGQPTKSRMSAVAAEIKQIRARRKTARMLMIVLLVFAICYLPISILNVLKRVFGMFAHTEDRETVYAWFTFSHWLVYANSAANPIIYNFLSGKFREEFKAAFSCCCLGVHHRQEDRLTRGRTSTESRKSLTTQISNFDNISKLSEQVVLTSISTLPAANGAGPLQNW", "test": "Counterscreen assay for antagonists of the orexin 1 receptor (OX1R; HCRTR1): Fluorescence-based cell-based dose response assay for antagonists of the orexin 2 receptor (OX2R; HCRTR2), run by assay provider.", "format": "functional"}, "[10]": {"target": "T5, Orexin receptor type 2", "test": "Counterscreen assay for antagonists of the orexin 1 receptor (OX1R; HCRTR1): Homogeneous Time Resolved Fluorescence (HTRF)-based cell-based dose response assay for antagonists of the orexin 2 receptor (OX2R; HCRTR2), run by assay provider.", "format": "functional"}, "[11]": {"target": "T4, Orexin/Hypocretin receptor type 1", "test": "Fluorescence-based cell-based high throughput dose response assay for antagonists of the orexin 1 receptor (OX1R; HCRTR1). [Related pubchem assays (depositor defined):AID434989, AID435008, AID463079, AID485270, AID492963, AID492964, AID492965, AID493232, AID504717, AID504718]", "format": "functional"}, "[12]": {"target": "Hepatocyte nuclear factor 4-alpha (Homo sapiens, UniProt P41235)", "sequence (P41235 whole entry)": "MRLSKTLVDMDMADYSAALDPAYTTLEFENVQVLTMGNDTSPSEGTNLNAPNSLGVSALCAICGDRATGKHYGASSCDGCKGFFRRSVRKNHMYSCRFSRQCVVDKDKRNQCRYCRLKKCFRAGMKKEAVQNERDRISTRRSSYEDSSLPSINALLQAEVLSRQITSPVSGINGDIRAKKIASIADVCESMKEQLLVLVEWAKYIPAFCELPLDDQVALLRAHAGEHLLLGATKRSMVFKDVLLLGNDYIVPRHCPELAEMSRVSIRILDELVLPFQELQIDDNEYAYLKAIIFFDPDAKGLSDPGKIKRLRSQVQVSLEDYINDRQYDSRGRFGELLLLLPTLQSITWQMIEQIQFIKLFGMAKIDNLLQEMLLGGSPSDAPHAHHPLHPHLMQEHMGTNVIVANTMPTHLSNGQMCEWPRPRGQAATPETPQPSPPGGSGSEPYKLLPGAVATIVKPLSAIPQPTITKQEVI", "format": "functional, cell-based"}, "[13]": {"target": "T6, Heat shock factor protein 1 (Mus musculus, UniProt P38532)", "T6 sequence (P38532 whole entry)": "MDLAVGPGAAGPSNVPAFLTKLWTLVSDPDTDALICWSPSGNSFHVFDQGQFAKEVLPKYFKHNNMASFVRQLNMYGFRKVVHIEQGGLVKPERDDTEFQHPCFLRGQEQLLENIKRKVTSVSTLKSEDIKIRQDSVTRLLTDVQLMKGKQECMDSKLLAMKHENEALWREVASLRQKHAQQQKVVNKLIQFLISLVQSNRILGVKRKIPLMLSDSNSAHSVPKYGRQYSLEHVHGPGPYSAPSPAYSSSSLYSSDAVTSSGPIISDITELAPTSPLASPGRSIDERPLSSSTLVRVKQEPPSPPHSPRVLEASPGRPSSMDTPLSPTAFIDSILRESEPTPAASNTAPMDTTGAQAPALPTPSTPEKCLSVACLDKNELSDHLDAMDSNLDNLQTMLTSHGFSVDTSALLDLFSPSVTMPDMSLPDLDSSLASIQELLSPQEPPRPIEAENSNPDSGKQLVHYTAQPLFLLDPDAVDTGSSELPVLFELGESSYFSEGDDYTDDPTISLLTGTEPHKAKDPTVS", "test": "enhancement of HSF1-driven luciferase signal – cell-based, NIH3T3, luminescence, dose retest, confirmation (AID 435004)", "format": "functional"}, "[14]": {"target": "Long-chain-fatty-acid--AMP ligase FadD28 (Mycobacterium tuberculosis, UniProt P9WQ59)", "sequence (P9WQ59 whole entry)": "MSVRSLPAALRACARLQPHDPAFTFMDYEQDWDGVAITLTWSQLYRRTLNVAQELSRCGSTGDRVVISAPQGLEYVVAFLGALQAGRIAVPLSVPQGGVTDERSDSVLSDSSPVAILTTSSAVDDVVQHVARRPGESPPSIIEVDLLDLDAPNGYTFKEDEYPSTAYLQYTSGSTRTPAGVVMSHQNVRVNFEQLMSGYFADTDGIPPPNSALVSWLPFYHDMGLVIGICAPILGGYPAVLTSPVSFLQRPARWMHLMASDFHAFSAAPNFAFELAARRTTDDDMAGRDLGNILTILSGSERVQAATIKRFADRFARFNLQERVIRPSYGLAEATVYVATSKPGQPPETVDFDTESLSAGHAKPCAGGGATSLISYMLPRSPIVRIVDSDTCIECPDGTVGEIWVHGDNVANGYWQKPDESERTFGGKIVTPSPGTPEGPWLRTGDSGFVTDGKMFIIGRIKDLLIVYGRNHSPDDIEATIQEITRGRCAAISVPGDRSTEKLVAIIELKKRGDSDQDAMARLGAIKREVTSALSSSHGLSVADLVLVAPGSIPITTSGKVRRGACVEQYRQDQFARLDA", "test": "Fluorescence polarization aasay to screen for inhibitors that compete for the binding of FadD28 to a bisubstrate Measured in Biochemical System Using Plate Reader - 2147-01_Inhibitor_Dose_CherryPick_Activity.", "format": "functional, Mycobacterium tuberculosis H37Rv"}, "[15]": {"target": "T7, SUMO-activating enzyme (Homo sapiens, UniProt Q9UBT2)", "T7 sequence (Q9UBE0 whole entry)": "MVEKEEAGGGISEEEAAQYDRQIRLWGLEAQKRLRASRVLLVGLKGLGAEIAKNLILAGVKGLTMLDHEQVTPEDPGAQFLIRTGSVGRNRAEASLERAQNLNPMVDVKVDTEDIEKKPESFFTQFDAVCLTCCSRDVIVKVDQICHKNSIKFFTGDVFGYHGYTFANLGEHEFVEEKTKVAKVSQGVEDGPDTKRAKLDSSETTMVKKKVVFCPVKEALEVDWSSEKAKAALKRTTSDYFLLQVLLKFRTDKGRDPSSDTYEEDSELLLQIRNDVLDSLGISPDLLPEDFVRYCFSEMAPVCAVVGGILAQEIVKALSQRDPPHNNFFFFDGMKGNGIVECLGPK", "T7 sequence (Q9UBT2 whole entry)": "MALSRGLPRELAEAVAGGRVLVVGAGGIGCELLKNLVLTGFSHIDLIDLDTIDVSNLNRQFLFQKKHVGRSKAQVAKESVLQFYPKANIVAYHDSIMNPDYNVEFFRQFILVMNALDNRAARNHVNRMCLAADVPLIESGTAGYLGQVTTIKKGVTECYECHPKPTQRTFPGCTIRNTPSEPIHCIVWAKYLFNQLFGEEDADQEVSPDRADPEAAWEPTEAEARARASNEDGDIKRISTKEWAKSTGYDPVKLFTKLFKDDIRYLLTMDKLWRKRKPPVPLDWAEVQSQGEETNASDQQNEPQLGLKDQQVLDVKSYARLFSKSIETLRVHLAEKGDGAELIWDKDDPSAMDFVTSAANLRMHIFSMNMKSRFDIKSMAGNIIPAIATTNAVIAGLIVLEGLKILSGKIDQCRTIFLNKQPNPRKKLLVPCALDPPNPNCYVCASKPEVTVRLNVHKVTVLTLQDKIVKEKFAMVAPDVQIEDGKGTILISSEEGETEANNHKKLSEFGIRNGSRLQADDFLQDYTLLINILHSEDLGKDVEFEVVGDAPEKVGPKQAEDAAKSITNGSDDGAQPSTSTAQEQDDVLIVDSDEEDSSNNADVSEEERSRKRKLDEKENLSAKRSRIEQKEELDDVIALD", "test": "blockers of SAE1/SAE2–UBC9 SUMO transfer – biochemical, HTRF, uHTS, primary screen (AID 2006)", "format": "protein-complex assay"}, "[16]": {"target": "Genome polyprotein (dengue virus type 2, UniProt P29990)", "sequence (P29990 2492-3391 limits assumed)": "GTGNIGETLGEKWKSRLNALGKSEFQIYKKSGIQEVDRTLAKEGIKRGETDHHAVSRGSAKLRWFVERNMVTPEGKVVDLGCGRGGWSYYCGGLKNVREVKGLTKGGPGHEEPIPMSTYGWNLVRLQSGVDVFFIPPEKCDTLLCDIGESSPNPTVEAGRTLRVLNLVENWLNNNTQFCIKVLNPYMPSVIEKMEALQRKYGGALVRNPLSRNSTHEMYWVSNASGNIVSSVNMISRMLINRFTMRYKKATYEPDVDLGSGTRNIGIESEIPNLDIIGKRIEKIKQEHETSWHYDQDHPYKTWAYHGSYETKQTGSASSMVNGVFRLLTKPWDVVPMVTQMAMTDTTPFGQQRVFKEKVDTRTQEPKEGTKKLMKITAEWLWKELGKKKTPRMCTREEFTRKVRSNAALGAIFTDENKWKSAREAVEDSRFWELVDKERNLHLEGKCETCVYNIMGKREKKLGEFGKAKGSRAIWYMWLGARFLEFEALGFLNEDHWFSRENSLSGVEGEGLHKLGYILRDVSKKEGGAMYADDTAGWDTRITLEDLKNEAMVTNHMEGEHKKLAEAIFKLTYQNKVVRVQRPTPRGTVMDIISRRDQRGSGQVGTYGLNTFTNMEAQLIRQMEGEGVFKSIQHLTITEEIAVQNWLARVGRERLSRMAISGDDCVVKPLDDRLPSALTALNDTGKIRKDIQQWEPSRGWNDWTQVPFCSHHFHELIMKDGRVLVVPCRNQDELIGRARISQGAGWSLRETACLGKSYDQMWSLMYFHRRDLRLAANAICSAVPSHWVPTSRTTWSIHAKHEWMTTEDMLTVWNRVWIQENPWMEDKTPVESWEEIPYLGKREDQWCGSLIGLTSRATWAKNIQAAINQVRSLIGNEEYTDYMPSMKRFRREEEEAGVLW", "test": "flavivirus cap methylation enzyme inhibition – biochemical, confirmation dose response, primary screen (AID 588689)", "format": "functional"}, "[17]": {"target": "T7, SUMO-activating enzyme", "test": "blockers of UBC9-mediated SUMO conjugation – biochemical, AlphaScreen, SUMOylation inhibitor project, confirmation (AID 2018)", "format": "functional"}, "[18]": {"target": "T8, Mitochondrial peptide methionine sulfoxide reductase (Bos taurus, UniProt P54149)", "T8 sequence (P54149 whole entry)": "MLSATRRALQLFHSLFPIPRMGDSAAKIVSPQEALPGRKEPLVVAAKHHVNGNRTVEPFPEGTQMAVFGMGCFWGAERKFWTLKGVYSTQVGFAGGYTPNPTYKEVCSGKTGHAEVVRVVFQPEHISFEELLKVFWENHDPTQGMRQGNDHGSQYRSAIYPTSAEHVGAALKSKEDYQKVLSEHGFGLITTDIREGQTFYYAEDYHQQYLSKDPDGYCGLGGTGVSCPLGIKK", "test": "Absorbance-based biochemical high throughput dose response assay for activators of Methionine sulfoxide reductase A (MsrA).", "format": "functional"}, "[19]": {"target": "T9, Polyadenylate-binding protein 1 (Homo sapiens, UniProt P11940)", "T9 sequence (P11940 whole entry)": "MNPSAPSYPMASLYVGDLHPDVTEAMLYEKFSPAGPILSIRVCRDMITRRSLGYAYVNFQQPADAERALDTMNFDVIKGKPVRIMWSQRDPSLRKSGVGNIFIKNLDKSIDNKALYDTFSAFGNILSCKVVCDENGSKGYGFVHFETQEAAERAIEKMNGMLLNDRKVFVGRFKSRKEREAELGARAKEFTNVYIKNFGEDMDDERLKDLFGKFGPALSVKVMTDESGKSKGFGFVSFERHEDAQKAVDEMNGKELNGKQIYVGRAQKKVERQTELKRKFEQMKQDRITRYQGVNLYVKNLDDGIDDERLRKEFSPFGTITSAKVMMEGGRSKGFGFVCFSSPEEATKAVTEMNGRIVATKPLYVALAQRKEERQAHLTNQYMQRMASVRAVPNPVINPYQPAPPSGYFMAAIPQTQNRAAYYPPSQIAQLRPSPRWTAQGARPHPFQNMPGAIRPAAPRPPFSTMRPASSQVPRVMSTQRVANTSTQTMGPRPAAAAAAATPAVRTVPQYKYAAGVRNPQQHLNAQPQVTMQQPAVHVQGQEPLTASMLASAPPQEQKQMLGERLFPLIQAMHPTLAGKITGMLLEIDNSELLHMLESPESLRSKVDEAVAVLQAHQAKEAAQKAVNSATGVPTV", "test": "MLLE binding blockers, Cy5 peptide tracer – biochemical, fluorescence polarization, Cy5-PAM2 peptide, secondary, miRNA deadenylation inhibitor project, dose response (AID 602260)", "format": "functional", "settings": "read-out: IC50_Mean"}, "[20]": {"target": "T9, Polyadenylate-binding protein 1", "test": "MLLE domain peptide-binding blockers, IC50 – biochemical, fluorescence polarization, FITC-PAM2 peptide, dose response (AID 602259)", "format": "functional", "settings": "read-out: IC50_Mean"}}, "note": "Active and inactive are the calls of the source.", "data": [{"smiles": "COc1cc(NS(=O)(=O)c2ccc(NC(=S)NC(=O)c3sc4ccccc4c3Cl)cc2)ncn1", "values": [{"measurement": "EC50", "setting": "[1]", "value": "> 89.2 µM (inactive)"}, {"measurement": "IC50", "setting": "[2]", "value": "11.4 µM (not active)"}]}, {"smiles": "COc1ccc(N2C(=O)[C@@H]3[C@H](C2=O)[C@H]2c4ccccc4C=CN2[C@@H]3C(C)=O)cc1", "values": [{"measurement": "IC50", "setting": "[3]", "value": "1.19 µM (active)"}, {"measurement": "IC50", "setting": "[4]", "value": "0.543 µM (active)"}, {"measurement": "IC50", "setting": "[5]", "value": "3.03 µM (active)"}]}, {"smiles": "Cc1cc(Br)cc2c1NC(=O)C2(c1c(C)n(C)n(-c2ccccc2)c1=O)c1c(C)n(C)n(-c2ccccc2)c1=O", "values": [{"measurement": "IC50", "setting": "[6]", "value": "> 66.2 µM (inactive)"}, {"measurement": "IC50", "setting": "[7]", "value": "1.28 µM (active)"}, {"measurement": "IC50", "setting": "[8]", "value": "> 49.8 µM (inactive)"}, {"measurement": "IC50", "setting": "[9]", "value": "> 88.8 µM (inactive)"}, {"measurement": "IC50", "setting": "[10]", "value": "0.99 µM (active)"}, {"measurement": "IC50", "setting": "[11]", "value": "6.52 µM (active)"}]}, {"smiles": "CC(=O)Cc1cc(O)c2ccccc2c1OC(=O)c1ccccc1", "values": [{"measurement": "IC50", "setting": "[12]", "value": "14.6 µM (inactive)"}, {"measurement": "EC50", "setting": "[13]", "value": "> 260 µM (inactive)"}]}, {"smiles": "CCC(C)(C)C1CCc2c(sc(NC(=O)c3ccccc3C(=O)O)c2C#N)C1", "note": "(configuration not stated)", "values": [{"measurement": "AC50", "setting": "[14]", "value": "37.3 µM (active)"}, {"measurement": "IC50", "setting": "[15]", "value": "21.4 µM (active)"}, {"measurement": "IC50", "setting": "[16]", "value": "42.6 µM (active)"}, {"measurement": "IC50", "setting": "[17]", "value": "15.3 µM (active)"}]}, {"smiles": "O=c1[nH]c(=S)[nH]cc1Oc1ccc(Cl)cc1Cl", "values": [{"measurement": "EC50", "setting": "[18]", "value": "> 104 µM (inactive)"}, {"measurement": "IC50", "setting": "[19]", "value": "> 66 µM (inactive)"}, {"measurement": "IC50", "setting": "[20]", "value": "> 66 µM (inactive)"}]}, {"smiles": "O=C(Cn1c(=O)n(Cc2ccco2)c(=O)c2c3c(sc21)CCCC3)Nc1ccccc1", "values": [{"measurement": "IC50", "setting": "[12]", "value": "22.2 µM (inactive)"}]}, {"smiles": "COc1ccc(C(=O)NCCc2c[nH]c3ccccc23)cc1S(=O)(=O)N1CCOCC1", "values": [{"measurement": "AC50", "setting": "[14]", "value": "82.7 µM (active)"}]}]}
